Measurements from the supplement of paper PMC10307832.

Experiments:
Experiment in all cases: relative viability (nuclei count vs DMSO), 5 days (fraction); higher = more cells survive
UMC-11 = system: UMC-11
Method in brief: (§1)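 For relative viability, nuclei counts in treated wells were divided by those in vehicle wells. Lung cancer cell lines had been pin-tool dosed in 1536-well plates the day after seeding and cultured for 5 days, then fixed and stained in one step (final 0.05% Triton X-100, 1% formaldehyde, 1 ug/ml Hoechst) and imaged at 4×. Doses were one drug alone or a fixed anchor-drug dose plus five library-drug doses (not always all listed) in √10 steps, and values are duplicate-plate medians.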

NCI-H2023 = system: NCI-H2023
Method in brief: as §1

NCI-H1915 = system: NCI-H1915
Method in brief: as §1

HCC-44 = system: HCC-44
Method in brief: as §1

LCLC-97TM1 = system: LCLC-97TM1
Method in brief: as §1

SW 1573 = system: SW 1573
Method in brief: as §1

NCI-H1734 = system: NCI-H1734
Method in brief: as §1

NCI-H2347 = system: NCI-H2347
Method in brief: as §1

EPLC-272H = system: EPLC-272H
Method in brief: as §1

NCI-H1975 = system: NCI-H1975
Method in brief: as §1

NCI-H2342 = system: NCI-H2342
Method in brief: as §1

NCI-H1395 = system: NCI-H1395
Method in brief: as §1

NCI-H838 = system: NCI-H838
Method in brief: as §1

HCC-15 = system: HCC-15
Method in brief: as §1

A-427 = system: A-427
Method in brief: as §1

NCI-H520 = system: NCI-H520
Method in brief: as §1

NCI-H2405 = system: NCI-H2405
Method in brief: as §1

COR-L 105 = system: COR-L 105
Method in brief: as §1

LC-2-ad = system: LC-2-ad
Method in brief: as §1

SW 900 = system: SW 900
Method in brief: as §1

CAL-12T = system: CAL-12T
Method in brief: as §1

NCI-H1792 = system: NCI-H1792
Method in brief: as §1

CN1CCN(CCOc2cc(OC3CCOCC3)c3c(Nc4c(Cl)ccc5c4OCO5)ncnc3c2)CC1 [Saracatinib] + CC(=O)c1c(C)c2cnc(Nc3ccc(N4CCNCC4)cn3)nc2n(C2CCCC2)c1=O [Palbociclib] (partner 0.5 µM)
relative viability (UMC-11; first compound 0.02 µM): 0.339 | relative viability (UMC-11; first compound 0.2 µM): 0.374 | relative viability (UMC-11; first compound 0.6325 µM): 0.38 | relative viability (UMC-11; first compound 2 µM): 0.309 | relative viability (NCI-H2023; first compound 0.02 µM): 0.379 | relative viability (NCI-H2023; first compound 0.2 µM): 0.31 | relative viability (NCI-H2023; first compound 0.6325 µM): 0.282 | relative viability (NCI-H2023; first compound 2 µM): 0.19 | relative viability (NCI-H1915; first compound 0.02 µM): 0.488 | relative viability (NCI-H1915; first compound 0.2 µM): 0.468 | relative viability (NCI-H1915; first compound 0.6325 µM): 0.537 | relative viability (NCI-H1915; first compound 2 µM): 0.462 | relative viability (HCC-44; first compound 0.02 µM): 1.01 | relative viability (HCC-44; first compound 0.2 µM): 0.974 | relative viability (HCC-44; first compound 0.6325 µM): 0.979 | relative viability (HCC-44; first compound 2 µM): 0.938 | relative viability (LCLC-97TM1; first compound 0.02 µM): 0.21 | relative viability (LCLC-97TM1; first compound 0.2 µM): 0.185 | relative viability (LCLC-97TM1; first compound 0.6325 µM): 0.281 | relative viability (LCLC-97TM1; first compound 2 µM): 0.175 | relative viability (SW 1573; first compound 0.02 µM): 0.416 | relative viability (SW 1573; first compound 0.2 µM): 0.399 | relative viability (SW 1573; first compound 0.6325 µM): 0.382 | relative viability (SW 1573; first compound 2 µM): 0.28 | relative viability (NCI-H1734; first compound 0.02 µM): 0.362 | relative viability (NCI-H1734; first compound 0.6325 µM): 0.372 | relative viability (NCI-H1734; first compound 2 µM): 0.329 | relative viability (NCI-H2347; first compound 0.02 µM): 0.468 | relative viability (NCI-H2347; first compound 0.2 µM): 0.397 | relative viability (NCI-H2347; first compound 0.6325 µM): 0.428 | relative viability (NCI-H2347; first compound 2 µM): 0.432 | relative viability (EPLC-272H; first compound 0.02 µM): 0.342 | relative viability (EPLC-272H; first compound 0.2 µM): 0.287 | relative viability (EPLC-272H; first compound 0.6325 µM): 0.413 | relative viability (EPLC-272H; first compound 2 µM): 0.305 | relative viability (NCI-H1975; first compound 0.02 µM): 0.584 | relative viability (NCI-H1975; first compound 0.2 µM): 0.603 | relative viability (NCI-H1975; first compound 0.6325 µM): 0.718 | relative viability (NCI-H1975; first compound 2 µM): 0.441 | relative viability (NCI-H2342; first compound 0.02 µM): 0.528 | relative viability (NCI-H2342; first compound 0.2 µM): 0.479 | relative viability (NCI-H2342; first compound 0.6325 µM): 0.524 | relative viability (NCI-H2342; first compound 2 µM): 0.545 | relative viability (NCI-H1395; first compound 0.02 µM): 0.606 | relative viability (NCI-H1395; first compound 0.2 µM): 0.562 | relative viability (NCI-H1395; first compound 0.6325 µM): 0.598 | relative viability (NCI-H1395; first compound 2 µM): 0.516 | relative viability (NCI-H838; first compound 0.02 µM): 0.224 | relative viability (NCI-H838; first compound 0.2 µM): 0.215 | relative viability (NCI-H838; first compound 0.6325 µM): 0.216 | relative viability (NCI-H838; first compound 2 µM): 0.182 | relative viability (HCC-15; first compound 0.02 µM): 0.763 | relative viability (HCC-15; first compound 0.2 µM): 0.677 | relative viability (HCC-15; first compound 0.6325 µM): 0.758 | relative viability (HCC-15; first compound 2 µM): 0.753 | relative viability (A-427; first compound 0.02 µM): 0.531 | relative viability (A-427; first compound 0.2 µM): 0.457 | relative viability (A-427; first compound 0.6325 µM): 0.525 | relative viability (A-427; first compound 2 µM): 0.506 | relative viability (NCI-H520; first compound 0.02 µM): 0.249 | relative viability (NCI-H520; first compound 0.2 µM): 0.211 | relative viability (NCI-H520; first compound 0.6325 µM): 0.214 | relative viability (NCI-H520; first compound 2 µM): 0.156 | relative viability (NCI-H2405; first compound 0.02 µM): 0.567 | relative viability (NCI-H2405; first compound 0.2 µM): 0.45 | relative viability (NCI-H2405; first compound 0.6325 µM): 0.44 | relative viability (NCI-H2405; first compound 2 µM): 0.358 | relative viability (COR-L 105; first compound 0.02 µM): 0.384 | relative viability (COR-L 105; first compound 0.2 µM): 0.332 | relative viability (COR-L 105; first compound 0.6325 µM): 0.38 | relative viability (COR-L 105; first compound 2 µM): 0.321 | relative viability (LC-2-ad; first compound 0.02 µM): 0.571 | relative viability (LC-2-ad; first compound 0.2 µM): 0.448 | relative viability (LC-2-ad; first compound 0.6325 µM): 0.504 | relative viability (LC-2-ad; first compound 2 µM): 0.434 | relative viability (SW 900; first compound 0.02 µM): 0.548 | relative viability (SW 900; first compound 0.2 µM): 0.432 | relative viability (SW 900; first compound 0.6325 µM): 0.383 | relative viability (SW 900; first compound 2 µM): 0.293 | relative viability (CAL-12T; first compound 0.02 µM): 0.542 | relative viability (CAL-12T; first compound 0.2 µM): 0.409 | relative viability (CAL-12T; first compound 0.6325 µM): 0.527 | relative viability (CAL-12T; first compound 2 µM): 0.152 | relative viability (NCI-H1792; first compound 0.02 µM): 0.567 | relative viability (NCI-H1792; first compound 0.2 µM): 0.439 | relative viability (NCI-H1792; first compound 0.6325 µM): 0.781 | relative viability (NCI-H1792; first compound 2 µM): 0.55
